The NIST ThermoML archive (doi:10.1016/j.jct.2016.09.030)

Assay: xn = mol fraction of the nth substance listed
Conditions: 100 kPa, Liquid; for viscosity: Concentric cylinders viscometry; for mass density: Vibrating tube method

CCOC(=O)CCC(=O)OCC [diethyl butanedioate] + CC(C)CCO
Conditions | mass density [kg/m3] | viscosity [mPa·s]
288.15 K, x1 = 0.1 | 845.17 | 3.582
288.15 K, x1 = 0.2 | 875.25 | 3.029
288.15 K, x1 = 0.3 | 902.72 | 2.76
288.15 K, x1 = 0.3999 | 927.82 | 2.625
288.15 K, x1 = 0.5 | 951.1 | 2.58
288.15 K, x1 = 0.5999 | 972.64 | 2.6
288.15 K, x1 = 0.7 | 992.67 | 2.667
288.15 K, x1 = 0.7999 | 1011.24 | 2.808
288.15 K, x1 = 0.9002 | 1028.55 | 2.943
288.15 K, x1 = 1 | 1044.83 | 3.195
293.15 K, x1 = 0.1 | 841.19 | 3.097
293.15 K, x1 = 0.2 | 871.04 | 2.621
293.15 K, x1 = 0.3 | 898.32 | 2.396
293.15 K, x1 = 0.3999 | 923.26 | 2.283
293.15 K, x1 = 0.5 | 946.4 | 2.25
293.15 K, x1 = 0.5999 | 967.82 | 2.271
293.15 K, x1 = 0.7 | 987.73 | 2.332
293.15 K, x1 = 0.7999 | 1006.2 | 2.455
293.15 K, x1 = 0.9002 | 1023.43 | 2.573
293.15 K, x1 = 1 | 1039.63 | 2.807
298.15 K, x1 = 0.1 | 837.19 | 2.712
298.15 K, x1 = 0.2 | 866.82 | 2.321
298.15 K, x1 = 0.3 | 893.91 | 2.139
298.15 K, x1 = 0.3999 | 918.7 | 2.053
298.15 K, x1 = 0.5 | 941.69 | 2.025
298.15 K, x1 = 0.5999 | 962.98 | 2.048
298.15 K, x1 = 0.7 | 982.79 | 2.103
298.15 K, x1 = 0.7999 | 1001.17 | 2.207
298.15 K, x1 = 0.9002 | 1018.32 | 2.308
298.15 K, x1 = 1 | 1034.44 | 2.491
303.15 K, x1 = 0.1 | 833.18 | 2.377
303.15 K, x1 = 0.2 | 862.59 | 2.056
303.15 K, x1 = 0.3 | 889.5 | 1.905
303.15 K, x1 = 0.3999 | 914.12 | 1.834
303.15 K, x1 = 0.5 | 936.98 | 1.817
303.15 K, x1 = 0.5999 | 958.15 | 1.838
303.15 K, x1 = 0.7 | 977.86 | 1.889
303.15 K, x1 = 0.7999 | 996.14 | 1.981
303.15 K, x1 = 0.9002 | 1013.2 | 2.069
303.15 K, x1 = 1 | 1029.25 | 2.229
308.15 K, x1 = 0.1 | 829.15 | 2.096
308.15 K, x1 = 0.2 | 858.35 | 1.831
308.15 K, x1 = 0.3 | 885.07 | 1.707
308.15 K, x1 = 0.3999 | 909.54 | 1.65
308.15 K, x1 = 0.5 | 932.26 | 1.638
308.15 K, x1 = 0.5999 | 953.31 | 1.661
308.15 K, x1 = 0.7 | 972.91 | 1.707
308.15 K, x1 = 0.7999 | 991.1 | 1.789
308.15 K, x1 = 0.9002 | 1008.09 | 1.868
308.15 K, x1 = 1 | 1024.08 | 2.008
313.15 K, x1 = 0.1 | 825.09 | 1.867
313.15 K, x1 = 0.2 | 854.08 | 1.649
313.15 K, x1 = 0.3 | 880.62 | 1.547
313.15 K, x1 = 0.3999 | 904.94 | 1.502
313.15 K, x1 = 0.5 | 927.52 | 1.496
313.15 K, x1 = 0.5999 | 948.47 | 1.518
313.15 K, x1 = 0.7 | 967.97 | 1.562
313.15 K, x1 = 0.7999 | 986.08 | 1.635
313.15 K, x1 = 0.9002 | 1002.99 | 1.706
313.15 K, x1 = 1 | 1018.9 | 1.821
318.15 K, x1 = 0.1 | 821.01 | 1.656
318.15 K, x1 = 0.2 | 849.79 | 1.475
318.15 K, x1 = 0.3 | 876.16 | 1.391
318.15 K, x1 = 0.3999 | 900.33 | 1.356
318.15 K, x1 = 0.5 | 922.78 | 1.354
318.15 K, x1 = 0.5999 | 943.61 | 1.377
318.15 K, x1 = 0.7 | 963.02 | 1.419
318.15 K, x1 = 0.7999 | 981.04 | 1.485
318.15 K, x1 = 0.9002 | 997.88 | 1.549
318.15 K, x1 = 1 | 1013.72 | 1.66
323.15 K, x1 = 0.1 | 816.9 | 1.496
323.15 K, x1 = 0.2 | 845.48 | 1.346
323.15 K, x1 = 0.3 | 871.68 | 1.271
323.15 K, x1 = 0.3999 | 895.7 | 1.247
323.15 K, x1 = 0.5 | 918.03 | 1.243
323.15 K, x1 = 0.5999 | 938.75 | 1.27
323.15 K, x1 = 0.7 | 958.06 | 1.308
323.15 K, x1 = 0.7999 | 975.99 | 1.369
323.15 K, x1 = 0.9002 | 992.76 | 1.428
323.15 K, x1 = 1 | 1008.55 | 1.523

CCOC(=O)CCC(=O)OCC [diethyl butanedioate] + CC(C)CO
Conditions | mass density [kg/m3] | viscosity [mPa·s]
288.15 K, x1 = 0.0999 | 844.65 | 3.284
288.15 K, x1 = 0.2 | 878.53 | 2.763
288.15 K, x1 = 0.3001 | 908.28 | 2.542
288.15 K, x1 = 0.4 | 934.67 | 2.473
288.15 K, x1 = 0.4999 | 958.02 | 2.477
288.15 K, x1 = 0.5999 | 978.97 | 2.546
288.15 K, x1 = 0.6999 | 997.81 | 2.625
288.15 K, x1 = 0.8 | 1014.88 | 2.774
288.15 K, x1 = 0.9 | 1030.48 | 2.962
288.15 K, x1 = 1 | 1044.83 | 3.195
293.15 K, x1 = 0.0999 | 840.5 | 2.816
293.15 K, x1 = 0.2 | 874.13 | 2.403
293.15 K, x1 = 0.3001 | 903.71 | 2.23
293.15 K, x1 = 0.4 | 929.94 | 2.177
293.15 K, x1 = 0.4999 | 953.16 | 2.186
293.15 K, x1 = 0.5999 | 974.02 | 2.249
293.15 K, x1 = 0.6999 | 992.78 | 2.32
293.15 K, x1 = 0.8 | 1009.79 | 2.45
293.15 K, x1 = 0.9 | 1025.33 | 2.611
293.15 K, x1 = 1 | 1039.63 | 2.807
298.15 K, x1 = 0.0999 | 836.33 | 2.443
298.15 K, x1 = 0.2 | 869.73 | 2.108
298.15 K, x1 = 0.3001 | 899.12 | 1.973
298.15 K, x1 = 0.4 | 925.2 | 1.931
298.15 K, x1 = 0.4999 | 948.31 | 1.947
298.15 K, x1 = 0.5999 | 969.07 | 2.004
298.15 K, x1 = 0.6999 | 987.75 | 2.073
298.15 K, x1 = 0.8 | 1004.7 | 2.184
298.15 K, x1 = 0.9 | 1020.18 | 2.322
298.15 K, x1 = 1 | 1034.44 | 2.491
303.15 K, x1 = 0.0999 | 832.13 | 2.135
303.15 K, x1 = 0.2 | 865.31 | 1.866
303.15 K, x1 = 0.3001 | 894.51 | 1.756
303.15 K, x1 = 0.4 | 920.45 | 1.73
303.15 K, x1 = 0.4999 | 943.44 | 1.747
303.15 K, x1 = 0.5999 | 964.11 | 1.802
303.15 K, x1 = 0.6999 | 982.72 | 1.864
303.15 K, x1 = 0.8 | 999.6 | 1.964
303.15 K, x1 = 0.9 | 1015.04 | 2.084
303.15 K, x1 = 1 | 1029.25 | 2.229
308.15 K, x1 = 0.0999 | 827.9 | 1.875
308.15 K, x1 = 0.2 | 860.85 | 1.659
308.15 K, x1 = 0.3001 | 889.88 | 1.574
308.15 K, x1 = 0.4 | 915.68 | 1.557
308.15 K, x1 = 0.4999 | 938.56 | 1.576
308.15 K, x1 = 0.5999 | 959.14 | 1.629
308.15 K, x1 = 0.6999 | 977.68 | 1.686
308.15 K, x1 = 0.8 | 994.51 | 1.775
308.15 K, x1 = 0.9 | 1009.9 | 1.882
308.15 K, x1 = 1 | 1024.08 | 2.008
313.15 K, x1 = 0.0999 | 823.63 | 1.657
313.15 K, x1 = 0.2 | 856.36 | 1.484
313.15 K, x1 = 0.3001 | 885.22 | 1.418
313.15 K, x1 = 0.4 | 910.89 | 1.409
313.15 K, x1 = 0.4999 | 933.67 | 1.43
313.15 K, x1 = 0.5999 | 954.16 | 1.48
313.15 K, x1 = 0.6999 | 972.64 | 1.534
313.15 K, x1 = 0.8 | 989.42 | 1.614
313.15 K, x1 = 0.9 | 1004.76 | 1.71
313.15 K, x1 = 1 | 1018.9 | 1.821
318.15 K, x1 = 0.0999 | 819.31 | 1.471
318.15 K, x1 = 0.2 | 851.84 | 1.334
318.15 K, x1 = 0.3001 | 880.53 | 1.283
318.15 K, x1 = 0.4 | 906.08 | 1.281
318.15 K, x1 = 0.4999 | 928.76 | 1.304
318.15 K, x1 = 0.5999 | 949.18 | 1.352
318.15 K, x1 = 0.6999 | 967.59 | 1.403
318.15 K, x1 = 0.8 | 984.32 | 1.476
318.15 K, x1 = 0.9 | 999.62 | 1.562
318.15 K, x1 = 1 | 1013.72 | 1.66
323.15 K, x1 = 0.0999 | 814.95 | 1.324
323.15 K, x1 = 0.2 | 847.28 | 1.218
323.15 K, x1 = 0.3001 | 875.82 | 1.175
323.15 K, x1 = 0.4 | 901.24 | 1.18
323.15 K, x1 = 0.4999 | 923.83 | 1.201
323.15 K, x1 = 0.5999 | 944.18 | 1.249
323.15 K, x1 = 0.6999 | 962.54 | 1.3
323.15 K, x1 = 0.8 | 979.22 | 1.366
323.15 K, x1 = 0.9 | 994.48 | 1.438
323.15 K, x1 = 1 | 1008.55 | 1.523
